Test results taken from patent US20230293526A1, “METHOD FOR TREATING CANCER WITH A REVERSE TRANSCRIPTASE INHIBITOR” (PrimeFour Therapeutics, Inc., priority 2020, published 2023).

How the values were obtained:
[1] = test system: human LINE-1; test: Human LINE-1 (L1) retrotransposition dual-luciferase reporter assay in HeLa cells; format: cell-based; conditions: Homo sapiens, HeLa, 72 h, read-out: Human LINE-1 IC50 (Human L1 activity inhibition)
Method: Representative compounds were tested for inhibition of retrotransposition activity of human LINE-1 (L1) retrotransposition reporter assay in HeLa cells according to the following procedure.
Human Cervical Adenocarcinoma Cells (HeLa) were cultured in Dulbecco's Modified Eagle's Medium (DMEM) containing 4500 mg/L glucose, L-glutamine, sodium pyruvate and sodium bicarbonate, supplemented with 10% of heat inactivated fetal bovine serum (FBS). Cells were grown at 37° C. in an atmosphere of 5% CO2. The dual luciferase-encoding plasmid pYX017 was provided by Prof Wenfeng An (Xie, et al., 2011, Nucleic Acids Res).
The reporter assay was performed in 96-well white, optical bottom plates (Thermo Fisher, 165306). 24 hours prior to transfection, HeLa cells were seeded in a density of 2,500 cells per well, in 50 μL of DMEM, 10% FBS media volume. Cells were incubated at 37° C. in an atmosphere of 5% CO2. Seeding was optimized to achieve approximately 30% cell confluency on the day of transfection. A transfection mix was prepared by combining transfection reagent FuGENE® HD (Promega, E2311) and plasmid DNA (100 ng per well) in a 3:1 ratio, in OpiMEM media (Thermo Fisher, 31985062). Next, 5 μL of the transfection mix was combined with 20 μL of DMEM, 10% FBS media, and 25 μL of this mix was added into each well of an assay plate. In each assay plate one column remained untransfected to serve as a blank luminescence signal.
Serial dilution of test compounds was performed in DMSO and transferred to medium. Next, 25 μL of media-diluted compounds series were transferred to an assay plate containing cells and transfection media. The final concentration of DMSO in treated wells was 0.2%. Serial dilutions of compounds were added to an assay plate immediately after transfection. Compounds were tested in triplicates. The assay plate was then incubated with transfection reagent and compounds at 37° C. in an atmosphere of 5% CO2 for 72 hours.
Luciferase reporter activity was quantified with the Dual-Luciferase® Reporter Assay System (Promega) following the manufacturer's manual, with a passive lysis buffer volume increased to 30 μL and lysis incubation time increased to 20 min at room temperature with gentle shaking, to ensure complete cell lysis. Luminescence was measured using a SpectraMax i3×Multi-Mode Microplate Reader, with integration times of 100 ms and 10 ms applied to measure FLuc and RLuc signals, respectively. Relative LNE-1 activity was calculated as Firefly signal/Renilla signal*10,000. In order to determine IC50 values for each compound, dose response data were fit to a logistic using non-linear regression.

[2] = test system: cancer cell lines; test: Cancer cell proliferation activity of representative nucleosides, CellTiterGlo 72 h (Example 7, Tables 8 and 9); format: cell-based; conditions: 72 h
Outline: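 Cancer cell lines seeded and incubated at 37° C overnight, then exposed to nucleosides (final DMSO 0.1%) for 72 h at 37° C with 5% or 10% CO2. Viability read by CellTiterGlo luminescence and normalized to 0.1% DMSO (100%) and 10 μM staurosporine (0%) controls.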

IC50 [1]: 43 nM
IC50 ([2]; 72 h, 5637, bladder): > 50 µM
IC50 ([2]; CLS439, bladder): > 50 µM
IC50 ([2]; HS729, muscle): > 50 µM
IC50 ([2]; J82, bladder): > 50 µM
IC50 ([2]; JAR, placenta): > 50 µM
IC50 ([2]; MT3, breast): 3.29 µM
IC50 ([2]; PC3, prostate): > 50 µM
IC50 ([2]; RD, muscle): > 50 µM
IC50 ([2]; T24, bladder): 3.46 µM
IC50 ([2]; Homo sapiens, 22Rv1, 72 h, 22RV1, prostate): > 50 µM
IC50 ([2]; Homo sapiens, 786-0, 72 h, 786O, kidney): > 50 µM
IC50 ([2]; Homo sapiens, A204, 72 h, A204, muscle): 0.27 µM
IC50 ([2]; Homo sapiens, A549, 72 h, A549, lung): 5.54 µM
IC50 ([2]; Homo sapiens, A673, 72 h, A673, bone): > 50 µM
IC50 ([2]; Homo sapiens, A2780, 72 h, A2780, ovary): > 50 µM
IC50 ([2]; Homo sapiens, A-375, 72 h, A375, skin): > 50 µM
IC50 ([2]; Homo sapiens, A-431, 72 h, A431, skin): > 50 µM
IC50 ([2]; Homo sapiens, ACHN, kidney): 2.74 µM
IC50 ([2]; Homo sapiens, ASPC1, 72 h, ASPC1, pancreas): > 50 µM
IC50 ([2]; Homo sapiens, BT-20, 72 h, BT20, breast): > 50 µM
IC50 ([2]; Homo sapiens, BXPC-3, 72 h, BXPC3, pancreas): > 50 µM
IC50 ([2]; Homo sapiens, C-33-A, C33A, endometrial): 6.53 µM
IC50 ([2]; Homo sapiens, CAKI-1, 72 h, CAKI1, kidney): 1.49 µM
IC50 ([2]; Homo sapiens, COLO 205, 72 h, COLO205, colon): 3.44 µM
IC50 ([2]; Homo sapiens, COLO-678, 72 h, COLO678, colon): > 50 µM
IC50 ([2]; Homo sapiens, Ca-Ski, CASKI, endometrial): > 50 µM
IC50 ([2]; Homo sapiens, Caco-2, 72 h, CACO2, colon): > 50 µM
IC50 ([2]; Homo sapiens, Calu-6, 72 h, CALU6, lung): > 50 µM
IC50 ([2]; Homo sapiens, DLD-1, 72 h, DLD1, colon): > 50 µM
IC50 ([2]; Homo sapiens, DU-145, 72 h, DU145, prostate): > 50 µM
IC50 ([2]; Homo sapiens, EFO-21, 72 h, EFO21, ovary): > 50 µM
IC50 ([2]; Homo sapiens, EJ-28, 72 h, EJ28, bladder): > 50 µM
IC50 ([2]; Homo sapiens, Granta-519, 72 h, GRANTA-519, hematological): 1.61 µM
IC50 ([2]; Homo sapiens, HCT-15, 72 h, HCT15, colon): 9.11 µM
IC50 ([2]; Homo sapiens, HCT-116, 72 h, HCT116, colon): 3.01 µM
IC50 ([2]; Homo sapiens, HEK293, 72 h, HEK293, kidney): > 50 µM
IC50 ([2]; Homo sapiens, HL-60, 72 h, HL-60, hematological): > 50 µM
IC50 ([2]; Homo sapiens, HT-29, 72 h, HT29, colon): > 50 µM
IC50 ([2]; Homo sapiens, HT-1080, 72 h, HT1080, connective tissue): > 50 µM
IC50 ([2]; Homo sapiens, HeLa, endometrial): > 50 µM
IC50 ([2]; Homo sapiens, HepG2, 72 h, HEPG2, liver): > 50 µM
IC50 ([2]; Homo sapiens, Hs-578T, HS578T, breast): > 50 µM
IC50 ([2]; Homo sapiens, IGROV-1, 72 h, IGROV1, ovary): > 50 µM
IC50 ([2]; Homo sapiens, IMR-90, 72 h, IMR90, lung): > 50 µM
IC50 ([2]; Homo sapiens, JEG-3, 72 h, JEG3, placenta): > 50 µM
IC50 ([2]; Homo sapiens, JIMT-1, 72 h, JIMT1, breast): > 50 µM
IC50 ([2]; Homo sapiens, K562, 72 h, K-562, hematological): > 50 µM
IC50 ([2]; Homo sapiens, Kasumi 1, 72 h, KASUMI-1, hematological): > 50 µM
IC50 ([2]; Homo sapiens, L-363, 72 h, L-363, hematological): > 50 µM
IC50 ([2]; Homo sapiens, LoVo, colon): > 50 µM
IC50 ([2]; Homo sapiens, MCF7, 72 h, MCF7, breast): > 50 µM
IC50 ([2]; Homo sapiens, MDA-MB-231, 72 h, MDAMB231, breast): 2.85 µM
IC50 ([2]; Homo sapiens, MDA-MB-435, 72 h, MDAMB435, skin): > 50 µM
IC50 ([2]; Homo sapiens, MDA-MB-436, 72 h, MDAMB436, breast): > 50 µM
IC50 ([2]; Homo sapiens, MDA-MB-468, 72 h, MDAMB468, breast): > 50 µM
IC50 ([2]; Homo sapiens, MG-63, 72 h, MG63, bone): > 50 µM
IC50 ([2]; Homo sapiens, MHH-ES-1, 72 h, MHHES1, bone): > 50 µM
IC50 ([2]; Homo sapiens, MIA PaCa-2, 72 h, MIAPACA2, pancreas): > 50 µM
IC50 ([2]; Homo sapiens, MINO, hematological): 1.3 µM
IC50 ([2]; Homo sapiens, MV4-11, 72 h, MV4-11, hematological): 4.39 µM
IC50 ([2]; Homo sapiens, NCI-H23, 72 h, NCI-H23, lung): > 50 µM
IC50 ([2]; Homo sapiens, NCI-H82, 72 h, NCIH82, lung): > 50 µM
IC50 ([2]; Homo sapiens, NCI-H292, 72 h, NCIH292, lung): 4.62 µM
IC50 ([2]; Homo sapiens, NCI-H460, 72 h, NCIH460, ung): 4.01 µM
IC50 ([2]; Homo sapiens, OVCAR-3, 72 h, OVCAR3, ovary): > 50 µM
IC50 ([2]; Homo sapiens, OVCAR-4, 72 h, OVCAR4, ovary): > 50 µM
IC50 ([2]; Homo sapiens, PANC-1, 72 h, PANC1, pancreas): > 50 µM
IC50 ([2]; Homo sapiens, PLC-PRF-5, 72 h, PLCPRF5, liver): > 50 µM
IC50 ([2]; Homo sapiens, Panc1005, 72 h, PANC1005, pancreas): > 50 µM
IC50 ([2]; Homo sapiens, Ramos, hematological): 1.72 µM
IC50 ([2]; Homo sapiens, SAOS-2, 72 h, SAOS2, bone): > 50 µM
IC50 ([2]; Homo sapiens, SF-268, 72 h, SF268, brain): > 50 µM
IC50 ([2]; Homo sapiens, SF-295, 72 h, SF295, brain): > 50 µM
IC50 ([2]; Homo sapiens, SK-BR-3, 72 h, SKBR3, breast): > 50 µM
IC50 ([2]; Homo sapiens, SK-HEP1, 72 h, SKHEP1, liver): > 50 µM
IC50 ([2]; Homo sapiens, SK-LMS-1, 72 h, SKLMS1, uterus): > 50 µM
IC50 ([2]; Homo sapiens, SK-MEL-5, 72 h, SKMEL5, skin): > 50 µM
IC50 ([2]; Homo sapiens, SK-MEL-28, 72 h, SKMEL28, skin): > 50 µM
IC50 ([2]; Homo sapiens, SK-N-AS, SKNAS, brain): > 50 µM
IC50 ([2]; Homo sapiens, SK-N-SH, SKNSH, brain): > 50 µM
IC50 ([2]; Homo sapiens, SK-OV-3, 72 h, SKOV3, ovary): > 50 µM
IC50 ([2]; Homo sapiens, SNB-75, 72 h, SNB75, brain): > 50 µM
IC50 ([2]; Homo sapiens, SU-DHL10, 72 h, SU-DHL-10, hematological): > 50 µM
IC50 ([2]; Homo sapiens, SU-DHL-6, 72 h, SU-DHL-6, hematological): 3.8 µM
IC50 ([2]; Homo sapiens, SW-620, 72 h, SW620, colon): > 50 µM
IC50 ([2]; Homo sapiens, TE-671, 72 h, TE671, muscle): > 50 µM
IC50 ([2]; Homo sapiens, THP-1, 72 h, THP-1, hematological): > 50 µM
IC50 ([2]; Homo sapiens, U2OS, bone): > 50 µM
IC50 ([2]; Homo sapiens, U-87 MG, U87MG, brain): > 50 µM
IC50 ([2]; Homo sapiens, UMUC3, 72 h, UMUC3, bladder): > 50 µM
IC50 ([2]; Homo sapiens, UO-31, 72 h, UO31, kidney): 9.45 µM
IC50 ([2]; Homo sapiens, WSU-NHL, hematological): 2.82 µM
IC50 ([2]; NCI-H358M, NCIH358M, lung): 1.49 µM
IC50 ([2]; PBMC, hematological): 11.8 µM
IC50 ([2]; RD-ES, RDES, bone): > 50 µM
Compound: CC[C@]1(CO)O[C@@H](n2ccc(N)nc2=O)C[C@@H]1O [compound 21, 4-amino-1-((2R,4S,5R)-5-ethyl-4-hydroxy-5-(hydroxymethyl)tetrahydrofuran-2-yl)pyrimidin-2(1H)-one]
